Assay results: patent US20120288531A1, “PHARMACEUTICAL COMPOSITIONS FOR DELIVERY OF FERRIC IRON COMPOUNDS, AND METHODS OF USE THEREOF” (priority 2011, published 2012)

Legend:
[1] = Stability of ferric acetyl-hydroxamate complex in pre-hydrophilic fraction; details: pre-hydrophilic fraction of Table 1 (10% PVP-12 and 15% NaC8), 4 hours
[2] = one month at 25° and 40° C.
[3] = tested on: Blood hemoglobin; experiment: Repeated doses: effect on blood hemoglobin in normal SD rats; type: in vivo; details: ROA IJ (FAC) or PO (ferrous sulfate)
Procedure: Blood samples were collected pre-dosing (Day 1) and post-dosing (Day 22). Blood hemoglobin was evaluated using colorimetric assay.

In the case of `CC(=O)N[O-].CC(=O)N[O-].CC(=O)N[O-].[Fe+3]` [ferric acetyl-hydroxamate], the “precipitation and Fe2+ formation” value [1] is reported as “Neither precipitation nor Fe^2+ formation was observed” and the “stability in the pre-hydrophilic fraction” value [1] is reported as “stable for 4 hours”.

With `O.O=C([O-])CN(CCN(CC(=O)[O-])CC(=O)[O-])CC(=O)[O-].[Fe+3].[Na+]` [ferric sodium EDTA, ethylenediaminetetraacetic acid iron(III) sodium salt hydrate] the “stability in the oily suspension” value [2] was “good stability”.

In the case of ferrous sulfate, the “Hb at Day 22 (Mean ± SE)” value ([3]; post-dosing, daily for 21 days (18 doses), 6.3 mg iron per dose) is reported as 13.9 ± 0.2 g/dL and the “Hb at Day 1 (Mean ± SE)” value ([3]; pre-dosing, normal SD rats) is reported as 14.2 ± 0.2 g/dL.
